Test results reported in PubChem BioAssay (NCI).
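Grown in 96-well plates, cells were treated for 48 hours with each compound at five concentrations. Insufficient inhibition: endpoint recorded as highest concentration tested. GI50 = concentration required for 50% inhibition of growth. TGI: total growth inhibition.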

How the values were obtained:
Test in all cases: NCI-60 cell line screen, 48 h; in the data active means GI50 below about 0.43 µM; inactive means the rest
[1] = system: 786-0 renal
[2] = system: A498 renal
[3] = system: A549 NSCLC
[4] = system: ACHN renal
[5] = system: BT-549 breast
[6] = system: CAKI-1 renal
[7] = system: CCRF-CEM leukemia
[8] = system: COLO 205 colon
[9] = system: DU-145 prostate
[10] = system: EKVX NSCLC
[11] = system: HCC-2998 colon
[12] = system: HCT-116 colon
[13] = system: HCT-15 colon
[14] = system: HL-60(TB) leukemia
[15] = system: HOP-62 NSCLC
[16] = system: HOP-92 NSCLC
[17] = system: HS 578T breast
[18] = system: HT29 colon
[19] = system: IGROV1 ovarian
[20] = system: K-562 leukemia
[21] = system: KM12 colon
[22] = system: LOX IMVI melanoma
[23] = system: M14 melanoma
[24] = system: MALME-3M melanoma
[25] = system: MCF7 breast
[26] = system: MDA-MB-231 breast
[27] = system: MDA-MB-435
[28] = system: MOLT-4 leukemia
[29] = system: NCI-H226 lung
[30] = system: NCI-H23 lung
[31] = system: NCI-H460 lung
[32] = system: NCI-H522 lung
[33] = system: NCI/ADR-RES ovarian
[34] = system: OVCAR-3 ovarian
[35] = system: OVCAR-4 ovarian
[36] = system: OVCAR-5 ovarian
[37] = system: OVCAR-8 ovarian
[38] = system: PC-3 prostate
[39] = system: RPMI-8226 leukemia
[40] = system: RXF 393 renal
[41] = system: SF-268 CNS
[42] = system: SF-295 CNS
[43] = system: SF-539 CNS
[44] = system: SK-MEL-2 melanoma
[45] = system: SK-MEL-28 melanoma
[46] = system: SK-MEL-5 melanoma
[47] = system: SK-OV-3 ovarian
[48] = system: SN12C renal
[49] = system: SNB-19 CNS
[50] = system: SNB-75 CNS
[51] = system: SR leukemia
[52] = system: SW-620 colon
[53] = system: T-47D breast
[54] = system: TK-10 renal
[55] = system: U251 CNS
[56] = system: UACC-257 melanoma
[57] = system: UACC-62 melanoma
[58] = system: UO-31 renal

COc1cc2c3c(n(CCCNCCCNCCCn4c5c(c6cc(OC)c(OC)cc6c4=O)C(=O)c4ccccc4-5)c(=O)c2cc1OC)-c1ccccc1C3=O
> 91.7 µM: TGI [24]
inactive: GI50 [2] 25.2 µM | GI50 [3] 12.7 µM | GI50 [4] 24.2 µM | GI50 [5] 58.2 µM | GI50 [6] > 100 µM | GI50 [7] 0.491 µM | GI50 [8] 7.24 µM | GI50 [9] > 44.3 µM | GI50 [10] > 100 µM | GI50 [11] 2.13 µM | GI50 [12] 1.27 µM | GI50 [13] > 84.5 µM | GI50 [14] 1.11 µM | GI50 [15] 6.59 µM | GI50 [16] 1.74 µM | GI50 [17] > 50.7 µM | GI50 [18] 2.15 µM | GI50 [19] 1.33 µM | GI50 [20] 3.39 µM | GI50 [21] 4.77 µM | GI50 [22] 1.31 µM | GI50 [23] 22.6 µM | GI50 [24] 25.7 µM | GI50 [25] 1.51 µM | GI50 [26] 2 µM | GI50 [27] 12.9 µM | GI50 [28] 2.65 µM | GI50 [29] 7.89 µM | GI50 [30] > 100 µM | GI50 [31] 6.23 µM | GI50 [32] 1.54 µM | GI50 [33] > 100 µM | GI50 [34] 12.6 µM | GI50 [35] > 100 µM | GI50 [36] 20 µM | GI50 [37] 2.87 µM | GI50 [38] 4.04 µM | GI50 [39] 0.487 µM | GI50 [40] > 47.8 µM | GI50 [41] 6.61 µM | GI50 [42] 5.03 µM | GI50 [43] 9.17 µM | GI50 [44] 40.3 µM | GI50 [45] > 52.5 µM | GI50 [46] 68.2 µM | GI50 [47] > 100 µM | GI50 [48] 0.706 µM | GI50 [49] 6.91 µM | GI50 [50] 25 µM | GI50 [52] 7.51 µM | GI50 [53] > 24.8 µM | GI50 [54] 40.2 µM | GI50 [55] 2.49 µM | GI50 [56] > 100 µM | GI50 [57] 8.75 µM | GI50 [58] > 100 µM
> 58.9 µM: TGI [23]
45.4 µM: TGI [20] | TGI [43]
38.7 µM: TGI [32]
> 82.4 µM: TGI [45]
31.5 µM: TGI [34]
> 52.2 µM: TGI [29]
> 47.8 µM: TGI [49]
> 46.4 µM: TGI [1]
13.9 µM: TGI [22]
8.62 µM: TGI [16]
> 59.1 µM: TGI [27]
> 84.9 µM: TGI [21]
> 55.6 µM: TGI [19]
12.7 µM: TGI [7]
> 61.9 µM: TGI [8]
59.8 µM: TGI [2]
9.8 µM: TGI [28]
18.4 µM: TGI [42]
47 µM: TGI [15]
38.9 µM: TGI [57]
> 51.6 µM: TGI [48]
62.1 µM: TGI [50]
active: GI50 [51] 0.225 µM
> 92.2 µM: TGI [40]
6.62 µM: TGI [39]
17.4 µM: TGI [55]
> 60 µM: TGI [38]
17.6 µM: TGI [12]
> 53.2 µM: TGI [25]
12.6 µM: TGI [14]
> 100 µM: TGI [3] | TGI [4] | TGI [5] | TGI [6] | TGI [9] | TGI [10] | TGI [13] | TGI [17] | TGI [18] | TGI [30] | TGI [31] | TGI [33] | TGI [35] | TGI [36] | TGI [37] | TGI [41] | TGI [44] | TGI [46] | TGI [47] | TGI [52] | TGI [53] | TGI [54] | TGI [56] | TGI [58]
20.1 µM: TGI [26]
30.3 µM: TGI [11]
22.2 µM: TGI [51]
